Data: US20230041197A1, “TREATMENT OF A DISEASE OF THE GASTROINTESTINAL TRACT WITH AN IMMUNOMODULATOR” (Progenity, Inc., priority 2018, published 2023)
Where a name gives a salt, the structure may show the parent alone.

How the values were obtained:
[1] = Tacrolimus in GI tissue, luminal content and rectal content, oral vs intra-cecal device (Example 10); assay type: in vivo, Yorkshire-Cross farm swine
Procedure: Animals in Group 1 (Vehicle Control) were administered a single intra-cecal ingestible device containing 0.8 mL Vehicle solution (80% alcohol, 20% castor oil (HCO-60) on Day 1. On Day −10 the animals were anesthetized, and a veterinary surgeon surgically placed an intra-cecal port in each animal. On Day 1, each animal was placed into a sling then a single intra-cecal ingestible device containing 0.8 mL vehicle solution (80% alcohol, 20% castor oil (HCO-60)) is introduced by the veterinary surgeon into the cecum via the cecal port in each animal. Following ingestible device placement, the animals were removed from the slings and placed back into their pens with water. […]
Approximately 200-400 mg of rectal content were collected, if available, with a fecal swab (Copan Diagnostics Nylon Flocked Dry Swabs, 502CS01). The fecal swab was pre-weighed and weighed after collection in the collection tube (Sterile Tube and Cap No Media, PFPM913S), and the sample weight was recorded. […]
For tissue necropsy, small intestine fluid and cecal fluid were collected separately from all the animals into two separate square plastic bottles, and stored at −20° C. The length and diameter of the cecum and the colon was measured from one animal in each group and recorded for reference. […] All samples were weighed, and the tissue sample weights were recorded. […]

[2] = set-up: species or system Yorkshire-Cross farm swine; details: in vivo
From the text: Tables 32 and 33 provide the tissue and plasma ratios of the animals in Groups 2-5.

[3] = Tacrolimus blood pharmacokinetics, oral vs intra-cecal ingestible device (Example 10); assay type: in vivo, Yorkshire-Cross farm swine
Procedure: The primary objective of this study was to compare the tissue, plasma, rectal sample, and GI content pharmacokinetics of tacrolimus through oral versus intra-cecal ingestible device delivery in normal Yorkshire-Cross farm swine.
No further randomization procedure was employed.
Animals in Group 1 received an ingestible device containing 0.8 mL of vehicle solution (80% alcohol, 20% HCO-60). Animals in Group 2 received orally […] liquid formulation of tacrolimus at 4 mg/0.8 mL per animal (Prograf: 5 mg/mL). Animals in Group 3 received intra-cecally an ingestible device containing tacrolimus at 1 mg in 0.8 mL per ingestible device. Animals in Group 4 received intra-cecally an ingestible device containing tacrolimus at 2 mg in 0.8 mL per ingestible device. Animals in Group 5 received intra-cecally an ingestible device containing tacrolimus at 4 mg in 0.8 mL per ingestible device. To control for potential confounding effects of the surgery, all groups fast on Day −11 at least 24 hr before being subjected to anesthesia followed by surgical placements of a cecal port by a veterinary surgeon at Day −10. All animals were fasted for at least 12 hr prior to dosing on Day 1. Animals were dosed via either intra-cecal dosing (IC) or oral dosing (PO) at Day 1 (between 6-8 p.m.). All animals resumed feeding at approximately 4 hours after dose (11-12 p.m. after dosing).
Approximately 200-400 mg of rectal content were collected, if available, with a fecal swab (Copan Diagnostics Nylon Flocked Dry Swabs, 502CS01). The fecal swab was pre-weighed and weighed after collection in the collection tube (Sterile Tube and Cap No Media, PFPM913S), and the sample weight was recorded. The fecal swab was broken via the breakpoint, and was stored in the collection tube, and immediately frozen at −70° C. […] Immediately following euthanasia, tissue was collected.
Group 2 animals were administered a single oral dose of tacrolimus at 4 mg/0.8 mL (0.08-mg/kg) (in the vehicle solution) on Day 1. Plasma, rectal content sample, tissue collection, GI content collection and related procedures/storage/shipments was the same as those employed in Group 1.
(§1) Group 3 animals were administered a single intra-cecal ingestible device containing tacrolimus at 1-mg/0.8 mL (0.02 mg/kg) (in the vehicle solution) on Day 1 by a veterinary surgeon. Plasma, rectal content sample, tissue collection, GI content collection and related procedures/storage/shipments was the same as those employed in Group 1. All samples were analyzed for tacrolimus.
Group 4 animals were administered a single intra-cecal ingestible device of tacrolimus at 2 mg/0.8 mL (0.04 mg/kg) (in sterile vehicle solution) on Day 1 by a veterinary surgeon.
as §1, with “Group 5” for “Group 3”, “animals are” for “animals were”, “at 4 mg/0.8” for “at 1-mg/0.8”, “mL (0.08” for “mL (0.02”, “procedures/storage/shipments were” for “procedures/storage/shipments was”

[4] = tested on: IL-6, GM-CSF, IL-15, IL-2, IL-12, IL-13, TNF-α, INF-γ
[5] = female, Yorkshire-Cross, pig, in vivo, 0.04 mg/kg

Structure (SMILES)	tissue (spiral and transverse colon) and luminal content (spiral, transverse, and distal colon) concentrations ([1]; IC capsule high and moderate dose vs PO)	mean concentration in cecum tissue and proximate colon tissue ([1]; intra-cecal vs oral, FIG. 76)	mean concentration in spiral colon lumen, transverse colon lumen and distal colon lumen [2]	mean concentration in spiral colon tissue and transverse colon tissue [2]	Cmax ([3]; PO, 0.09 mg/kg) [ng/mL]	concentration at 12 h ([3]; female, Yorkshire-Cross, pig, in vivo, 0.02 mg/kg) [ng/mL]	Tmax [3, 5] [h]	concentration at 12 h [3, 5] [ng/mL]	concentration at 12 h ([3]; female, Yorkshire-Cross, pig, in vivo, 0.09 mg/kg) [ng/mL]	GM-CSF levels in plasma or colon tissue ([4]; IC vs PO treatment groups)	IL-6 expression in plasma ([4]; PO or IC, 1 h and 3 h post-treatment)	inhibition of IL-6 expression in colon tissue ([4]; all IC treated groups and high dose PO group (45 mg/kg), FIG. 112B)	IL-6 inhibition in colon tissue ([4]; low dose PO group (15 mg/kg), by 12 h post-dose)
C=CC[C@@H]1/C=C(\C)C[C@H](C)C[C@H](OC)[C@H]2O[C@@](O)(C(=O)C(=O)N3CCCC[C@H]3C(=O)O[C@H](/C(C)=C/[C@@H]3CC[C@@H](O)[C@H](OC)C3)[C@H](C)[C@@H](O)CC1=O)[C@H](C)C[C@@H]2OC [tacrolimus]	Significantly higher	higher	statistically higher	statistically higher	3.531 ± 3.84	0.746 ± 0.038	1	1.96 ± 0.491	4.35 ± 0.516	–	–	–	–
C[C@@H]1CCN(C(=O)CC#N)C[C@@H]1N(C)c1ncnc2[nH]ccc12 [tofacitinib citrate]	–	–	–	–	–	–	–	–	–	nor was there a significant difference	inhibition	sustained through 24 h post-dose	Recovery from IL-6 inhibition
